Molecular target: Cbl-b (36-427 aa truncated form, N-terminus Avi-tag) (Homo sapiens (Human), UniProt Q13191)
Test: Cbl-b binding: TR-FRET displacement of BODIPY-FL probe
Procedure: Compounds were assessed for binding activity to Cbl-b by their ability to compete with and displace a probe comprised of BODIPY-FL fluorophore conjugated to a Cbl-b inhibitor (see Example 54 in WO2020264398). In the assay, a 36-427 aa truncated form of Cbl-b with an N-terminus Avi-tag was incubated 20 mM HEPES pH 7.5, 150 mM NaCl, 0.01% Triton X-100, 0.1% BSA, 0.5 mM TCEP buffer with streptavidin-terbium (Cisbio). After one hour of incubation at room temperature, 1 uM each of fluorescent probe and compound were combined with the reaction mixture. Compounds with Cbl-b binding activity competitively displace the fluorophore tagged inhibitor thereby disrupting the FRET signal from the terbium-BODIPY-FL complex. The reaction mixtures were incubated for one additional hour at room temperature to allow for competition between inhibitor and candidate compounds to occur. The time resolved FRET (TR-FRET) signal was then read at 520/620 […] (excitation/emission) using a Spectramax M5e plate reader (Molecular Devices) to measure probe displacement. Compounds with Cbl-b binding activity had decreased FRET signal owing to disruption of the terbium-BODIPY-FL FRET complex. Standard methods in PRISM were used to calculate the compound IC50 values from the experimental data.

Cbl-b (36-427 aa truncated form, N-terminus Avi-tag), sequence (Q13191 36-427): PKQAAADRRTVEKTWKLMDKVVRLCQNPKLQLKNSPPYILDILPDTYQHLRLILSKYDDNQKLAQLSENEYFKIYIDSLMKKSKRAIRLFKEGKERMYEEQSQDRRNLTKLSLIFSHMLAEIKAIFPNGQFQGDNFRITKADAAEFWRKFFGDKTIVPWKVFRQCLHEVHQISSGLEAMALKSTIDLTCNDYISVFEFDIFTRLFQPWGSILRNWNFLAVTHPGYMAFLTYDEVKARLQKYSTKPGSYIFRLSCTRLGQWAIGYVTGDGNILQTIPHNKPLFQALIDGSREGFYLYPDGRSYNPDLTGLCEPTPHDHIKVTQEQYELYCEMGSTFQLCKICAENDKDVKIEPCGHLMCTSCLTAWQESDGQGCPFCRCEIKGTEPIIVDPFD

IC50 [nM] | SMILES
20 to 100 | C#CCN1CCN(c2cc(C3(Cc4nncn4C)COC3)cc(N3Cc4c(cc(CN5CCC[C@H](C)C5)cc4C(F)(F)F)C3=O)n2)CC1 [Compound 127, (S)-2-(4-(3-((4-methyl-4H-1,2,4-triazol-3-yl)methyl)oxetan-3-yl)-6-(4-(prop-2-yn-1-yl)piperazin-1-yl)pyridin-2-yl)-6-((3-methylpiperidin-1-yl)methyl)-4-(trifluoromethyl)isoindolin-1-one]
20 to 100 | C[C@H]1CCCN(Cc2cc3c(c(C(F)(F)F)c2)CN(c2cc(C4(Cc5nncn5C)COC4)cc(N4CCN(CC#N)CC4)n2)C3=O)C1 [Compound 128, (S)-2-(4-(4-(3-((4-methyl-4H-1,2,4-triazol-3-yl)methyl)oxetan-3-yl)-6-(6-((3-methylpiperidin-1-yl)methyl)-1-oxo-4-(trifluoromethyl)isoindolin-2-yl)pyridin-2-yl)piperazin-1-yl)acetonitrile]
20 to 100 | Cc1cn(CCNc2cc(C3(Cc4nncn4C)COC3)cc(N3Cc4c(cc(CN5CCC[C@H](C)C5)cc4C(F)(F)F)C3=O)n2)nn1 [Compound 129, (S)-2-(6-((2-(4-methyl-1H-1,2,3-triazol-1-yl)ethyl)amino)-4-(3-((4-methyl-4H-1,2,4-triazol-3-yl)methyl)oxetan-3-yl)pyridin-2-yl)-6-((3-methylpiperidin-1-yl)methyl)-4-(trifluoromethyl)isoindolin-1-one]
20 to 100 | C[C@H]1CCCN(Cc2cc3c(c(C(F)(F)F)c2)CN(c2cc(C4(Cc5nncn5C)COC4)cc(N4CCN(C(=O)Cc5nnn[nH]5)CC4)n2)C3=O)C1 [Compound 131, (S)-2-(6-(4-(2-(1H-tetrazol-5-yl)acetyl)piperazin-1-yl)-4-(3-((4-methyl-4H-1,2,4-triazol-3-yl)methyl)oxetan-3-yl)pyridin-2-yl)-6-((3-methylpiperidin-1-yl)methyl)-4-(trifluoromethyl)isoindolin-1-one]
20 to 100 | C[C@H]1CCCN(Cc2cc3c(c(C(F)(F)F)c2)CN(c2cc(C4(Cc5nncn5C)COC4)cc(N4CCN(C(=O)CN=[N+]=[N-])CC4)n2)C3=O)C1 [Compound 132, (S)-2-(6-(4-(2-azidoacetyl)piperazin-1-yl)-4-(3-((4-methyl-4H-1,2,4-triazol-3-yl)methyl)oxetan-3-yl)pyridin-2-yl)-6-((3-methylpiperidin-1-yl)methyl)-4-(trifluoromethyl)isoindolin-1-one]
5.01 to 20 | C=CCS(=O)(=O)N1CCN(c2cc(C3(Cc4nncn4C)COC3)cc(N3Cc4c(cc(CN5CCC[C@H](C)C5)cc4C(F)(F)F)C3=O)n2)CC1 [Compound 133, (S)-2-(6-(4-(allylsulfonyl)piperazin-1-yl)-4-(3-((4-methyl-4H-1,2,4-triazol-3-yl)methyl)oxetan-3-yl)pyridin-2-yl)-6-((3-methylpiperidin-1-yl)methyl)-4-(trifluoromethyl)isoindolin-1-one]
5.01 to 20 | C[C@H]1CCCN(Cc2cc3c(c(C(F)(F)F)c2)CN(c2cc(C4(Cc5nncn5C)COC4)cc(N4CCNCC4)n2)C3=O)C1 [Compound 140, (S)-2-(4-(3-((4-methyl-4H-1,2,4-triazol-3-yl)methyl)oxetan-3-yl)-6-(piperazin-1-yl)pyridin-2-yl)-6-((3-methylpiperidin-1-yl)methyl)-4-(trifluoromethyl)isoindolin-1-one; trifluoro acetic acid]
1 to 5 | C[C@H]1CCCN(Cc2cc3c(c(C(F)(F)F)c2)CN(c2cc(C4(Cc5nncn5C)COC4)cc(NCCCC#N)n2)C3=O)C1 [Compound 143, 4-[(4-{3-[(4-methyl-1,2,4-triazol-3-yl)methyl]oxetan-3-yl}-6-(6-{[(3S)-3-methylpiperidin-1-yl]methyl}-1-oxo-4-(trifluoromethyl)-3H-isoindol-2-yl)pyridin-2-yl)amino]butanenitrile; trifluoroacetic acid]
5.01 to 20 | CCSc1cc(C2(Cc3nncn3C)COC2)cc(N2Cc3c(C#N)cc(CN4CCC[C@H](C)C4)cc3C2=O)n1 [Compound 144, 2-[6-(ethylsulfanyl)-4-{3-[(4-methyl-1,2,4-triazol-3-yl)methyl]oxetan-3-yl}pyridin-2-yl]-6-{[(3S)-3-methylpiperidin-1-yl]methyl}-1-oxo-3H-isoindole-4-carbonitrile; trifluoroacetic acid]
5.01 to 20 | CCSc1cc(C2(Cc3nncn3C)COC2)cc(N2Cc3c(C(N)=O)cc(CN4CCC[C@H](C)C4)cc3C2=O)n1 [Compound 145, 2-[6-(ethylsulfanyl)-4-{3-[(4-methyl-1,2,4-triazol-3-yl)methyl]oxetan-3-yl}pyridin-2-yl]-6-{[(3S)-3-methylpiperidin-1-yl]methyl}-1-oxo-3H-isoindole-4-carboxamide]
20 to 100 | CCNc1cc(C2(Cc3nncn3C)COC2)cc(N2Cc3cc(CN4CCC[C@H](C)C4)sc3C2=O)n1 [Compound 149, 5-[6-(ethylamino)-4-{3-[(4-methyl-1,2,4-triazol-3-yl)methyl]oxetan-3-yl}pyridin-2-yl]-2-{[(3S)-3-methylpiperidin-1-yl]methyl}-4H-thieno[2,3-c]pyrrol-6-one]
100 to 1000 | C#CCOCC(c1cc2c(c(C(F)(F)F)c1)CN(c1cccc(C3(c4nncn4C)CC(C)C3)c1)C2=O)N1CCC[C@H](C)C1 (stereo partly drawn) [Compound 151, 6-{1-[(3S)-3-methylpiperidin-1-yl]-2-(prop-2-yn-1-yloxy)ethyl}-2-{3-[(1r,3s)-3-methyl-1-(4-methyl-1,2,4-triazol-3-yl)cyclobutyl]phenyl}-4-(trifluoromethyl)-3H-isoindol-1-one]
1 to 5 | Cn1cnnc1CC1(c2cc(NCCC#N)nc(N3Cc4c(cc(CN5CCC(O)(C6CC6)CC5)cc4C(F)(F)F)C3=O)c2)COC1 [Compound 155, 3-[(6-{6-[(4-cyclopropyl-4-hydroxypiperidin-1-yl)methyl]-1-oxo-4-(trifluoromethyl)-3H-isoindol-2-yl}-4-{3-[(4-methyl-1,2,4-triazol-3-yl)methyl]oxetan-3-yl}pyridin-2-yl)amino]propanenitrile]
20 to 100 | C[C@H](Cc1nncn1C)c1cccc(NC(=O)c2ccc(C=O)c(C3CC3)n2)c1 [Compound 156, 6-cyclopropyl-5-formyl-N-{3-[(2R)-1-(4-methyl-1,2,4-triazol-3-yl)propan-2-yl]phenyl}pyridine-2-carboxamide]
20 to 100 | Cn1cnnc1CC1(c2cc(NCCC#N)nc(N3Cc4c(cc(C=O)cc4C(F)(F)F)C3=O)c2)COC1 [Compound 157, 3-({6-[6-formyl-1-oxo-4-(trifluoromethyl)-3H-isoindol-2-yl]-4-{3-[(4-methyl-1,2,4-triazol-3-yl)methyl]oxetan-3-yl}pyridin-2-yl}amino)propanenitrile]
1 to 5 | CSc1cc(CN2CCC[C@H](C)C2)cc2c1CN(c1cc(C3(Cc4nncn4C)COC3)cc(NCCN=[N+]=[N-])n1)C2=O [Compound 158, 2-{6-[(2-azidoethyl)amino]-4-{3-[(4-methyl-1,2,4-triazol-3-yl)methyl]oxetan-3-yl}pyridin-2-yl}-6-{[(3S)-3-methylpiperidin-1-yl]methyl}-4-(methylsulfanyl)-3H-isoindol-1-one; trifluoroacetic acid]
20 to 100 | CCSc1cc(C2(Cc3nncn3C)COC2)cc(N2Cc3c(C(C)=O)cc(CN4CCC[C@H](C)C4)cc3C2=O)n1 [Compound 159, 4-acetyl-2-[6-(ethylsulfanyl)-4-{3-[(4-methyl-1,2,4-triazol-3-yl)methyl]oxetan-3-yl}pyridin-2-yl]-6-{[(3S)-3-methylpiperidin-1-yl]methyl}-3H-isoindol-1-one; trifluoroacetic acid]
1 to 5 | Cn1cnnc1CC1(c2cc(NCCC#N)nc(N3Cc4c(cc(CN5CCC6(CC5)CC6CO)cc4C(F)(F)F)C3=O)c2)COC1 (stereo not drawn) [Compound 160, 3-{[6-(6-{[1-(hydroxymethyl)-6-azaspiro[2.5]octan-6-yl]methyl}-1-oxo-4-(trifluoromethyl)-3H-isoindol-2-yl)-4-{3-[(4-methyl-1,2,4-triazol-3-yl)methyl]oxetan-3-yl}pyridin-2-yl]amino}propanenitrile]
1 to 5 | Cn1cnnc1CC1(c2cc(NCCC#N)nc(N3Cc4c(cc(CN5C[C@H]6CCC(O)C[C@H]6C5)cc4C(F)(F)F)C3=O)c2)COC1 (stereo partly drawn) [Compound 161, 3-{[6-(6-{[(3aR,7aS)-5-hydroxy-octahydroisoindol-2-yl]methyl}-1-oxo-4-(trifluoromethyl)-3H-isoindol-2-yl)-4-{3-[(4-methyl-1,2,4-triazol-3-yl)methyl]oxetan-3-yl}pyridin-2-yl]amino}propanenitrile; trifluoroacetic acid]
5.01 to 20 | CN1CCOC2(CCN(Cc3cc4c(c(C(F)(F)F)c3)CN(c3cc(C5(Cc6nncn6C)COC5)cc(NCCC#N)n3)C4=O)C2)C1 (stereo not drawn) [Compound 163, 3-[(4-{3-[(4-methyl-1,2,4-triazol-3-yl)methyl]oxetan-3-yl}-6-[6-({9-methyl-6-oxa-2,9-diazaspiro[4.5]decan-2-yl}methyl)-1-oxo-4-(trifluoromethyl)-3H-isoindol-2-yl]pyridin-2-yl)amino]propanenitrile]
5.01 to 20 | Cn1cnnc1CC1(c2cc(NCCC#N)nc(N3Cc4c(cc(CN5CC[C@@H](CN6CCOCC6)C5)cc4C(F)(F)F)C3=O)c2)COC1 [Compound 165, 3-[(4-{3-[(4-methyl-1,2,4-triazol-3-yl)methyl]oxetan-3-yl}-6-(6-{[(3R)-3-(morpholin-4-ylmethyl)pyrrolidin-1-yl]methyl}-1-oxo-4-(trifluoromethyl)-3H-isoindol-2-yl)pyridin-2-yl)amino]propanenitrile; trifluoroacetic acid]

From patent US20250304563A1, “ACTIVATORS OF EFFECTOR T CELLS” (Orum Therapeutics, Inc., priority 2022, published 2025)
